Columns and labels:
Type in all cases: in vivo
Aegilops tauschii = experiment: Pot experiment, soil treatment, control of Aegilops tauschii (fresh weight, Colby); conditions: mixtures: both AIs at these rates, after 35 days
Description: (§1) Referring to an article of Colby, S. R. i.e., Calculation of the synergistic and antagonistic response of herbicide combinations.
E0 is the theoretical fresh weight survival rate for the mixture of pyroxasulfone and the second herbicide selected from the group consisting of fluorochloridone, aclonifen, diflufenican and terbutryn;
X is the measured fresh weight survival rate for pyroxasulfone used alone at the same dosage as that in the mixture;
Y is the measured fresh weight survival rate for the second herbicide selected from the group consisting of fluorochloridone, aclonifen, diflufenican and terbutryn used alone at the same dosage as that in the mixture;
E is the measured fresh weight survival rate for the mixture of pyroxasulfone and the second herbicide selected from the group consisting of fluorochloridone, aclonifen, diflufenican and terbutryn.
(§2) E0-E value is calculated to evaluate the combined effect of pyroxasulfone and the second herbicide selected from the group consisting of fluorochloridone, aclonifen, diflufenican and terbutryn on the selected weeds.
(§3) In this Example, the herbicidal activity of treatments by a mixture of pyroxasulfone and the second herbicide selected from the group consisting of fluorochloridone, aclonifen, diflufenican and terbutryn for controlling Aegilops tauschii was investigated by a pot experiment. This Example was carried out in accordance with “NY/T 1155.4-2006 Guidelines for Indoor Bioassay Tests of Pesticides, Herbicides Part 4: Activity Determination Tests, Stem and Leaf Spray Method”. • Source of the agrochemicals tested were: • Pyroxasulfone: pyroxasulfone (850g/Kg, WG) from Adama Agan LTD. • Fluorochloridone: fluorochloridone (250 g/L, EC) from Adama Agan LTD. • Aclonifen: aclonifen (600 g/L, SC) from Adama Agan LTD. • Diflufenican: diflufenican (50g/Kg, WP) from Bayer. • Terbutryn: terbutryn (50g/Kg, SC) from Zhejiang Zhongshan Chemical Industry Group Co., Ltd. • Cultivation of test materials: The test soil was formed by mixing the 20 cm layer loam on the ground surface and the culture medium in a ratio of 3:1 as cultivation soil. Weeds were cultivated in an artificial climate chamber. The daytime and nighttime temperatures were set at 22° C. and 19° C., respectively, and the illumination was set at daytime: dark time 12h: 12h.
(§4) A certain amount of Aegilops tauschii seeds were sown in a plastic pot with a diameter of 9 cm, covering with 1-2 mm soil, and putting them in an enamel dish filled with water. The bottom infiltration method was used to water them, the agrochemicals tested in this Example were applied on the second day after sowing Aegilops tauschii seeds.
(§5) Spraying treatment: ASS-4 automatic control spraying system with a fan-shaped nozzle was used indoors to spray the agrochemicals, the running speed was adjusted based on nozzle pressure, flow rate, etc. to spray 50 mL of liquid of agrochemicals on the actual spray area of 1.1 m2 (equivalent to 30 liters per mu), arranging the plastic pots to be processed on the spraying table evenly, and spraying evenly. The spraying pressure was 0.35 MPa, and the flow rate of the fan-shaped nozzle was 800 mL/min, spraying in order from low dosage to high dosage. Each treatment was repeated 3 times. After spraying, the plastic pots were dried for one day, placed in an artificial climate chamber, and watered regularly to keep moist.
(§6) Weed investigation method and time: after applying the agrochemicals, the symptoms of weed damage (such as growth inhibition, chlorosis, deformity, etc.) were recorded in detail. After 35 days, the fresh weight of aerial part of the weeds in each treatment was weighed, and the measured fresh weight inhibition rate and the measured fresh weight survival rate for each treatment were calculated according to the following equations: […]

Lolium multiflorum Lamk = experiment: Pot experiment, soil treatment, control of Lolium multiflorum Lamk (fresh weight, Colby); conditions: mixtures: both AIs at these rates, after 35 days
Experimental: as §1, §2, §3, §4, §5, §6
Example 2 was conducted in substantially the same way as Example 1, except that Lolium multiflorum Lamk was used instead of Aegilops tauschii.

Bromus japonicus = experiment: Pot experiment, soil treatment, control of Bromus japonicus (fresh weight, Colby); conditions: mixtures: both AIs at these rates, after 35 days
Experimental: as §1, §2, §3, §4, §5, §6
Example 3 was conducted in substantially the same way as Example 1, except that Bromus japonicus was used instead of Aegilops tauschii.

Galium aparine = experiment: Pot experiment, soil treatment, control of Galium aparine (fresh weight, Colby)
Experimental: as §1, §2, §3, §4, §5, §6
Example 4 was conducted substantially the same way as Example 1, except that Galium aparine was used instead of Aegilops tauschii.

Lithospermum arvense = experiment: Pot experiment, soil treatment, control of Lithospermum arvense (fresh weight, Colby)
Experimental: as §1, §2, §3, §4, §5, §6
Example 5 was conducted substantially the same way as Example 1, except that Lithospermum arvense was used instead of Aegilops tauschii.

Solanum nigrum = experiment: Pot experiment (glass greenhouse), soil treatment, control of Solanum nigrum (fresh weight, Colby)
Experimental: as §1, §2, §3, §4, §5, §6
Example 6 was substantially conducted in the same as Example 1, except that (1) Solanum nigrum was used instead of Aegilops tauschii, (2) in “Cultivation of test materials” part, Solanum nigrum was cultivated in a glass greenhouse instead of an artificial climate chamber at a temperature of 25 to 33° C. with a natural illumination, and (3) in “Spraying treatment” part, after spraying and drying, the plastic pots were placed in a glass greenhouse instead of an artificial climate chamber.

[1] = g ai/ha: pyroxasulfone 11.25, fluorochloridone 31.25, aclonifen 150, diflufenican 14.0625, terbutryn 140.625
[2] = g ai/ha: pyroxasulfone 22.5, fluorochloridone 62.5, aclonifen 300, diflufenican 28.125, terbutryn 281.25
[3] = g ai/ha: pyroxasulfone 45, fluorochloridone 125, aclonifen 600, diflufenican 56.25, terbutryn 562.5
[4] = g ai/ha: pyroxasulfone 90, fluorochloridone 250, aclonifen 1200, diflufenican 112.5, terbutryn 1125
[5] = g ai/ha: pyroxasulfone 180, fluorochloridone 500, aclonifen 2400, diflufenican 225, terbutryn 2250
[6] = g ai/ha: pyroxasulfone 360, fluorochloridone 1000, aclonifen 4800, diflufenican 450, terbutryn 4500

Structure (SMILES): O=C(Nc1ccc(F)cc1F)c1cccnc1Oc1cccc(C(F)(F)F)c1 [diflufenican, N-(2,4-difluorophenyl)-2-(3-(trifluoromethyl)phenoxy)-3-pyridinecarboxamide]
- Measured fresh weight inhibition rate (%) (Aegilops tauschii; [1]): 3.7%
- Measured fresh weight survival rate (%) - E (Aegilops tauschii; [1]): 96.3%
- Measured fresh weight inhibition rate (%) (Aegilops tauschii; [2]): 6.7%
- Measured fresh weight survival rate (%) - E (Aegilops tauschii; [2]): 93.3%
- Measured fresh weight inhibition rate (%) (Aegilops tauschii; [3]): 4.3%
- Measured fresh weight survival rate (%) - E (Aegilops tauschii; [3]): 95.7%
- Measured fresh weight inhibition rate (%) (Aegilops tauschii; [4]): 6.7%
- Measured fresh weight survival rate (%) - E (Aegilops tauschii; [4]): 93.3%
- Measured fresh weight inhibition rate (%) (Aegilops tauschii; [5]): 10.4%
- Measured fresh weight survival rate (%) - E (Aegilops tauschii; [5]): 89.6%
- Measured fresh weight inhibition rate (%) (Aegilops tauschii; [6]): 37.2%
- Measured fresh weight survival rate (%) - E (Aegilops tauschii; [6]): 62.8%
- Measured fresh weight inhibition rate (%) (Lolium multiflorum Lamk; [1]): 87.0%
- Measured fresh weight survival rate (%) - E (Lolium multiflorum Lamk; [1]): 13.0%
- Measured fresh weight inhibition rate (%) (Lolium multiflorum Lamk; [2]): 88.0%
- Measured fresh weight survival rate (%) - E (Lolium multiflorum Lamk; [2]): 12.0%
- Measured fresh weight inhibition rate (%) (Lolium multiflorum Lamk; [3]): 93.2%
- Measured fresh weight survival rate (%) - E (Lolium multiflorum Lamk; [3]): 6.8%
- Measured fresh weight inhibition rate (%) (Lolium multiflorum Lamk; [4]): 99.5%
- Measured fresh weight survival rate (%) - E (Lolium multiflorum Lamk; [4]): 0.5%
- Measured fresh weight inhibition rate (%) (Lolium multiflorum Lamk; [5]): 100.0%
- Measured fresh weight survival rate (%) - E (Lolium multiflorum Lamk; [5]): 0.0%
- Measured fresh weight inhibition rate (%) (Lolium multiflorum Lamk; [6]): 100.0%
- Measured fresh weight survival rate (%) - E (Lolium multiflorum Lamk; [6]): 0.0%
- Measured fresh weight inhibition rate (%) (Bromus japonicus; [1]): 59.8%
- Measured fresh weight survival rate (%) - E (Bromus japonicus; [1]): 40.2%
- Measured fresh weight inhibition rate (%) (Bromus japonicus; [2]): 73.2%
- Measured fresh weight survival rate (%) - E (Bromus japonicus; [2]): 26.8%
- Measured fresh weight inhibition rate (%) (Bromus japonicus; [3]): 80.4%
- Measured fresh weight survival rate (%) - E (Bromus japonicus; [3]): 19.6%
- Measured fresh weight inhibition rate (%) (Bromus japonicus; [4]): 95.9%
- Measured fresh weight survival rate (%) - E (Bromus japonicus; [4]): 4.1%
- Measured fresh weight inhibition rate (%) (Bromus japonicus; [5]): 100.0%
- Measured fresh weight survival rate (%) - E (Bromus japonicus; [5]): 0.0%
- Measured fresh weight survival rate (%) - E (Galium aparine; 14.0625 g ai/ha): 38.4%
- Measured fresh weight survival rate (%) - E (Galium aparine; 28.125 g ai/ha): 27.4%
- Measured fresh weight survival rate (%) - E (Galium aparine; 56.25 g ai/ha): 26.0%
- Measured fresh weight survival rate (%) - E (Galium aparine; 112.5 g ai/ha): 15.1%
- Measured fresh weight survival rate (%) - E (Galium aparine; 225 g ai/ha): 1.4%
- inhibition at 14.0625 g/ha (Galium aparine; Galium aparine, soil, 14.0625 g ai/ha, read-out: Measured fresh weight inhibition rate (%)): 61.6%
- inhibition at 28.125 g/ha (Galium aparine; Galium aparine, soil, 28.125 g ai/ha, read-out: Measured fresh weight inhibition rate (%)): 72.6%
- inhibition at 56.25 g/ha (Galium aparine; Galium aparine, soil, 56.25 g ai/ha, read-out: Measured fresh weight inhibition rate (%)): 74%
- inhibition at 112.5 g/ha (Galium aparine; Galium aparine, soil, 112.5 g ai/ha, read-out: Measured fresh weight inhibition rate (%)): 84.9%
- inhibition at 225 g/ha (Galium aparine; Galium aparine, soil, 225 g ai/ha, read-out: Measured fresh weight inhibition rate (%)): 98.6%
- Measured fresh weight survival rate (%) - E (Lithospermum arvense; 14.0625 g ai/ha): 33.3%
- Measured fresh weight survival rate (%) - E (Lithospermum arvense; 28.125 g ai/ha): 17.4%
- Measured fresh weight survival rate (%) - E (Lithospermum arvense; 56.25 g ai/ha): 15.9%
- Measured fresh weight survival rate (%) - E (Lithospermum arvense; 112.5 g ai/ha): 1.4%
- Measured fresh weight survival rate (%) - E (Lithospermum arvense; 225 g ai/ha): 0.0%
- inhibition at 14.0625 g/ha (Lithospermum arvense; Buglossoides arvensis, soil, 14.0625 g ai/ha, read-out: Measured fresh weight inhibition rate (%)): 66.7%
- inhibition at 28.125 g/ha (Lithospermum arvense; Buglossoides arvensis, soil, 28.125 g ai/ha, read-out: Measured fresh weight inhibition rate (%)): 82.6%
- inhibition at 56.25 g/ha (Lithospermum arvense; Buglossoides arvensis, soil, 56.25 g ai/ha, read-out: Measured fresh weight inhibition rate (%)): 84.1%
- inhibition at 112.5 g/ha (Lithospermum arvense; Buglossoides arvensis, soil, 112.5 g ai/ha, read-out: Measured fresh weight inhibition rate (%)): 98.6%
- inhibition at 225 g/ha (Lithospermum arvense; Buglossoides arvensis, soil, 225 g ai/ha, read-out: Measured fresh weight inhibition rate (%)): 100%
- Measured fresh weight survival rate (%) - E (Solanum nigrum; 14.0625 g ai/ha): 94.1%
- Measured fresh weight survival rate (%) - E (Solanum nigrum; 28.125 g ai/ha): 90.2%
- Measured fresh weight survival rate (%) - E (Solanum nigrum; 56.25 g ai/ha): 79.2%
- Measured fresh weight survival rate (%) - E (Solanum nigrum; 112.5 g ai/ha): 71.8%
- Measured fresh weight survival rate (%) - E (Solanum nigrum; 225 g ai/ha): 63.5%
- inhibition at 14.0625 g/ha (Solanum nigrum; Solanum nigrum, soil, 14.0625 g ai/ha, read-out: Measured fresh weight inhibition rate (%)): 5.9%
- inhibition at 28.125 g/ha (Solanum nigrum; Solanum nigrum, soil, 28.125 g ai/ha, read-out: Measured fresh weight inhibition rate (%)): 9.8%
- inhibition at 56.25 g/ha (Solanum nigrum; Solanum nigrum, soil, 56.25 g ai/ha, read-out: Measured fresh weight inhibition rate (%)): 20.8%
- inhibition at 112.5 g/ha (Solanum nigrum; Solanum nigrum, soil, 112.5 g ai/ha, read-out: Measured fresh weight inhibition rate (%)): 28.2%
- inhibition at 225 g/ha (Solanum nigrum; Solanum nigrum, soil, 225 g ai/ha, read-out: Measured fresh weight inhibition rate (%)): 36.5%
